Measured values taken from patent US20050137230A1, “Carboxamide derivatives” (priority 2000, published 2005).

How the values were obtained:
[1] = molecular target: T1, factor VIIa (Homo sapiens, UniProt P08709); assay: inhibition of factor VIIa; format: biochemical
T1 sequence (P08709 213-466 limits assumed): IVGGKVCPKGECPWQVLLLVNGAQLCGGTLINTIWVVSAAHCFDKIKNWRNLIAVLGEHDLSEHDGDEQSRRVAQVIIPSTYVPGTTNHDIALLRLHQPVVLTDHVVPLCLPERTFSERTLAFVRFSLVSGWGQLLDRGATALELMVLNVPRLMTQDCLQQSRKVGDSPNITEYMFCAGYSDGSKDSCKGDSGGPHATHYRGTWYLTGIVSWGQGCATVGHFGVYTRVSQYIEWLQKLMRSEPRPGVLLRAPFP
T1 sequence (P08709 61-212 partner limits assumed): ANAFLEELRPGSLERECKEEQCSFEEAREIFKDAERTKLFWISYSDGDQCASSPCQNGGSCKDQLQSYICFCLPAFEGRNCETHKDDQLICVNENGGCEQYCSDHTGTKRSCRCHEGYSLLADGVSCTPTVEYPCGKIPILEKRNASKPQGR
From the text: The inhibition of factor VIIa by the compounds according to the invention and the measurement of the anticoagulant and antithrombotic activity can be determined by conventional in-vitro or in-vivo methods. A conventional method for the measurement of the inhibition of factor VIIa is described, for example, by H. F. Ronning et al. in Thrombosis Research 1996, 84, 73-81.

[2] = molecular target: factor Xa (Homo sapiens, UniProt P00742); assay: inhibition of factor Xa; format: biochemical
From the text: The inhibition of factor Xa by the compounds according to the invention and the measurement of the anticoagulant and antithrombotic activity can be determined by conventional in-vitro or in-vivo methods. A suitable method is described, for example, by J. Hauptmann et al. in Thrombosis and Haemostasis 1990, 63, 220-223.
The inhibition of factor Xa can be measured, for example, by the method of T. Hara et al. in Thromb. Haemostas. 1994, 71, 314-319.

Chain of factor Xa (P00742 235-488 limits assumed): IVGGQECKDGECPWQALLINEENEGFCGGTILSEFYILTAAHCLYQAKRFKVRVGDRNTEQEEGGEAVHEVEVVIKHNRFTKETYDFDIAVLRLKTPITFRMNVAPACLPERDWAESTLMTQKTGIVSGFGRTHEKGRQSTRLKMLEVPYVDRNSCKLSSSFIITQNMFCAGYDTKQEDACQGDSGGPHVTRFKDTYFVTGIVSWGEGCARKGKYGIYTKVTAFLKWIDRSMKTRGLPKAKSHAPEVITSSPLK
Chain of factor Xa (P00742 41-179 partner limits assumed): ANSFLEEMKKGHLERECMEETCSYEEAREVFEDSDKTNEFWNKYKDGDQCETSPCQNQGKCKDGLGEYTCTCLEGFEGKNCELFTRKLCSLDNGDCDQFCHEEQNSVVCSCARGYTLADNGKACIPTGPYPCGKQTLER

| IC50 [1] [µM] | IC50 [2] [µM] | SMILES |
| --- | --- | --- |
| 2 | 2.3 | CS(=O)(=O)c1ccccc1-c1ccc(NC(=O)C(NC(=O)Nc2ccccc2)c2ccccc2)cc1 (centres unmarked) [2-(3-phenylureido)-N-(2′-methylsulfonylbiphenyl-4-yl)-2-phenyl-acetamide] |
| 2 | 2 | CS(=O)(=O)c1ccccc1-c1ccc(NC(=O)C(Cc2cnc[nH]2)NC(=O)Nc2ccccc2)cc1 (centres unmarked) [2-(3-phenylureido)-N-(2′-methylsulfonylbiphenyl-4-yl)-3-(3H-imidazol-4-yl)propionamide] |
| 0.75 | 1.2 | CS(=O)(=O)c1ccccc1-c1ccc(NC(=O)C(Cc2cccs2)NC(=O)Nc2ccccc2)cc1 (centres unmarked) [2-(3-phenylureido)-N-(2′-methylsulfonylbiphenyl-4-yl)-3-(thiophen-2-yl)-propionamide] |
| 1.8 | 2.3 | CSCCC(NC(=O)Nc1ccccc1)C(=O)Nc1ccc(-c2ccccc2S(C)(=O)=O)cc1 (centres unmarked) [2-(3-phenylureido)-N-(2′-methylsulfonylbiphenyl-4-yl)-4-methylsulfanylbutyramide] |
| – | 0.58 | CCCC(NC(=O)Nc1ccc(Cl)cc1)C(=O)NCC1CCN(c2ccncc2)CC1 (centres unmarked) [2-[3-(4-chlorophenyl)ureido]-N-[1-(pyridin-4-yl)piperidin-4-ylmethyl]-valeramide] |
| – | 0.071 | O=C(Nc1ccc(Cl)cc1)OC(C(=O)NCC1CCN(c2ccncc2)CC1)c1ccccc1 (centres unmarked) [2-[N-(4-chlorophenyl)-carbamoyloxy]-N-[1-(pyridin-4-yl)piperidin-4-ylmethyl]-2-phenylacetamide] |
| 0.17 | 3 | CCCC[C@@H](NC(=O)Nc1ccccc1)C(=O)Nc1ccc(-c2ccccc2S(C)(=O)=O)cc1 [(R)-2-(3-phenylureido)-N-(2′-methylsulfonylbiphenyl-4-yl)hexanoamide] |
| 0.93 | 2 | CCC[C@@H](NC(=O)Nc1ccccc1)C(=O)Nc1ccc(-c2ccccc2S(C)(=O)=O)cc1 [(R)-2-(3-phenylureido)-N-(2′-methylsulfonylbiphenyl-4-yl)pentanoamide] |
| 0.065 | 0.086 | CS(=O)(=O)c1ccccc1-c1ccc(NC(=O)[C@@H](Cc2ccccc2)NC(=O)Nc2ccc(Cl)cc2)cc1 [(R)-2-[3-(4-chlorophenyl)ureido]-N-(2′-methylsulfonylbiphenyl-4-yl)-3-phenylpropionamide] |
| – | 0.055 | O=C(Nc1ccc(Cl)cc1)N[C@@H](C(=O)NCC1CCN(c2ccncc2)CC1)c1ccccc1 [(R)-2-[3-(4-chlorophenyl)ureido]-N-[1-(pyridin-4-yl)piperidin-4-ylmethyl]-2-phenylacetamide] |
| – | 0.41 | CC(C)C[C@@H](NC(=O)Nc1ccc(Cl)cc1)C(=O)NCC1CCN(c2ccncc2)CC1 [(R)-2-[3-(4-chlorophenyl)ureido]-N-[1-(pyridin-4-yl)piperidin-4-ylmethyl]-4-methylvaleramide] |
| 2.7 | 3.8 | CCC[C@H](NC(=O)Nc1ccccn1)C(=O)Nc1ccc(-c2ccccc2S(C)(=O)=O)cc1 [(S)-2-(3-pyridin-2-ylureido)-N-(2′-methylsulfonylbiphenyl-4-yl)-pentanoamide] |
